Literature values as cited in article PMC6331757, “Optimization of a peptide extraction and LC–MS protocol for quantitative analysis of antimicrobial peptides” (Future Science OA, 2018).

System: Gram-negative (e.g., Pseudomonas aeruginosa and Escherichia coli) and Gram-positive (e.g., Staphylococcus aureus) bacteria
Settings: qualitative statement

VRLIVAVRIWRR [AMP 1018, synthetic antimicrobial peptide 1018 (…); also used as internal standard]
antibacterial activity (kills bacteria, disperses biofilms, inhibits bacterial swarming): potent antibacterial
